Laboratory results reported in patent US4864021A, “5-fluorouracil derivatives” (Otsuka Pharmaceutical Co., Ltd., priority 1984, dated 1989).

System: not listed separately
Assay: Acute toxicity, oral, 14 days observation, Litchfield-Wilcoxon method
Conditions: mouse, in vivo, 5-week-old ICR male mice
Experimental: The compounds of the present invention prepared in Examples 2 and 54 were each orally administered to 5-week-old ICR male mice (8 mice in each group) to check the mice for the symptoms, change of weight and mortality by observing the mice for 14 consecutive days after the administration of the compounds. The LD50 value was determined from the mortality by the Litchfield-Wilcoxon method with the results shown below in Table 3.

`O=c1[nH]c(=O)n([C@H]2C[C@H](OCc3ccccc3)[C@@H](CO)O2)cc1F` [Example 2, 3'-O-benzyl-2'-deoxy-5-fluorouridine] and `CC(=O)OC[C@H]1O[C@@H](n2cc(F)c(=O)[nH]c2=O)C[C@@H]1OCc1ccccc1` [Example 54, 3'-O-benzyl-5'-O-acetyl-2'-deoxy-5-fluorouridine] cannot be ordered by LD50 at 336 h: > 1000 mg/kg for the first, > 1000 mg/kg for the second.

System: Sarcoma-180
Assay: Antitumor test: Sarcoma-180 subcutaneously transplanted in ICR mice, oral once a day for 7 days, tumor weight on 10th day (50% tumor inhibition dose)
Assay type: in vivo
Conditions: Mus musculus, 240 h, Table 1, Sarcoma-180 s.c. in ICR mice, once a day for 7 consecutive days, tumor weight on 10th day, read-out: ED50 (50% tumor inhibition dose, T/C is 0.5)
Experimental: (a) Sarcoma-180 subcultured in an ascites of ICR mice was diluted with a physiological saline solution and subcutaneously transplated into the backs of ICR mice in an amount of 2×10^7 each. Twenty-four hours after the transplantation, a test compound suspended in a 5% solution of gum arabic was orally administered to each of mice once a day for 7 consecutive days.
The solid tumor was extirpated from under the dorsal skin of mice on the 10th day after the transplantation to measure the weight of the tumor. There was determined the ratio (T/C) of the weight of tumor (T) cut out from the group of mice treated with the test compound to the weight of tumor (C) from the group of mice not treated therewith. The 50% tumor inhibition dose (ED50 value) in which T/C is 0.5 was determined from the dose-response curve of dosage and the ratio (T/C).

`O=c1[nH]c(=O)n([C@H]2C[C@H](OCc3ccccc3F)[C@@H](CO)O2)cc1F` [Example 2] and `O=c1[nH]c(=O)n([C@H]2C[C@H](OCc3ccccc3)[C@@H](CO)O2)cc1F` [drawing 480] are the same in ED50: 8 mg/kg for the first, 8 mg/kg for the second.

For `CC(=O)OC[C@H]1O[C@@H](n2cc(F)c(=O)[nH]c2=O)C[C@@H]1OCc1ccccc1` [Example 54, 3'-O-benzyl-5'-O-acetyl-2'-deoxy-5-fluorouridine], the ED50 was 15 mg/kg.

Same assay, conditions: Mus musculus, 240 h, Table 2, same manner as in (a): Sarcoma-180 s.c. in ICR mice, once a day for 7 consecutive days, read-out: ED50 (50% tumor inhibition dose, T/C is 0.5)

Going from `CC(=O)OC[C@H]1O[C@@H](n2cc(F)c(=O)n(C(=O)c3cccc(C(=O)Oc4cc(OC(=O)c5ccccc5)c(Cl)cn4)c3)c2=O)C[C@@H]1OC(C)=O` [Example 197, 3-[3-(4-benzoyloxy-5-chloro-2-pyridyloxycarbonyl)benzoyl]-2'-deoxy-3',5'-di-O-acetyl-5-fluorouridine] to `CC(=O)OC[C@H]1O[C@@H](n2cc(F)c(=O)n(C(=O)c3cccc(C(=O)Oc4cc(OC(=O)c5ccccc5)c(Cl)cn4)c3)c2=O)[C@H](OC(C)=O)[C@@H]1OC(C)=O` [Example 202, 3-[3-(4-benzoyloxy-5-chloro-2-pyridyloxycarbonyl)benzoyl]-5-fluoro-2',3',5'-tri-O-acetyluridine], the ED50 rises from 7 mg/kg to 22 mg/kg (3.1-fold).

Compared with `CC(=O)Oc1cc(OC(=O)c2cccc(C(=O)n3c(=O)c(F)cn([C@@H]4O[C@H](C)[C@@H](OC(C)=O)[C@H]4OC(C)=O)c3=O)c2)c(Cl)cn1` [Example 201, 3-[3-(2-acetoxy-5-chloro-4-pyridyloxycarbonyl)benzoyl]-5'-deoxy-2',3'-di-O-acetyl-5-fluorouridine], `O=C(Oc1cc(OC(=O)c2ccccc2)c(Cl)cn1)c1cccc(C(=O)n2c(=O)c(F)cn([C@H]3C[C@H](OCc4ccccc4)[C@@H](COCc4ccccc4)O3)c2=O)c1` [Example 208, 3-[3-(4-benzoyloxy-5-chloro-2-pyridyloxycarbonyl)benzoyl]-2'-deoxy-3',5'-di-O-benzyl-5-fluorouridine] is 2.4-fold lower in ED50: 12 mg/kg for the first, 5 mg/kg for the second.

In the case of `CCOCn1cc(F)c(=O)n(C(=O)c2cccc(C(=O)Oc3nc(OC(=O)c4ccccc4)ccc3C#N)c2)c1=O` [Example 227, 3-[3-(3-cyano-6-benzoyloxy-2-pyridyloxycarbonyl)benzoyl]-1-ethoxymethyl-5-fluorouracil], the ED50 is reported as 5 mg/kg.
